According to US5177106A, “4-amino substituted phenoxyalkyl carboxylic acid, ester, and alcohol derivatives as antihypercholesterolemic and antiatherosclerotic agents” (Warner-Lambert Company, priority 1991, dated 1993):

How the values were obtained:
[1] = molecular target: T1, acyl-CoA:cholesterol acyltransferase (ACAT) (Oryctolagus cuniculus, UniProt G1SFD9); experiment: Inhibition of cholesterol esterification by acyl-CoA:cholesterol acyltransferase (ACAT), in vitro, rabbit intestinal microsomal fraction; type: biochemical; details: endogenous cholesterol and exogenous 14C-oleoyl-CoA, read-out: IC50 (concentration of test compound required to inhibit cholesteryl oleate formation to 50% of control)
T1 construct: rabbit intestinal microsomal fraction; from tissue; host or cells: rabbit intestine, microsomal fraction
T1 sequence (G1SFD9 1-524): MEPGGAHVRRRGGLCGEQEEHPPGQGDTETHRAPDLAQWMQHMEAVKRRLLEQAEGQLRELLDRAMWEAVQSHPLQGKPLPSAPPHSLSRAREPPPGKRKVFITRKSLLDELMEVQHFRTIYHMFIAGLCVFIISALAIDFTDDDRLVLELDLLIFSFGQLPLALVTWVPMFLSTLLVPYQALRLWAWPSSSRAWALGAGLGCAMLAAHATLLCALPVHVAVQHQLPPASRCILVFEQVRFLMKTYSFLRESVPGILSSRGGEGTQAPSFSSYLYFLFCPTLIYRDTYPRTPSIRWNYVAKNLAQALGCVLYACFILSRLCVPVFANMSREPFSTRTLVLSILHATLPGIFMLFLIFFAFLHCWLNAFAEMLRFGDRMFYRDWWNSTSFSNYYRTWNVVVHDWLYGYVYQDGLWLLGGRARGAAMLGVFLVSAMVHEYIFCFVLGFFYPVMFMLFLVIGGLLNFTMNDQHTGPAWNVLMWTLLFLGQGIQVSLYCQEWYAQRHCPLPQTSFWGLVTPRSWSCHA
Method: The compounds of the present invention were tested for their ability to inhibit the esterification of cholesterol by the enzyme acyl-CoA:cholesterol acyltransferase (ACAT). The data in the table below is expressed as IC50 values, i.e., the concentration of test compound required to inhibit cholesteryl oleate formation to 50% of control.
The in vitro test employed is more fully described in Field, F. J. and Salome, R. G., Biochemica et Biophysica Acta, Volume 712, pages 557-570 (1982). The assay evaluates the ability of a test compound to inhibit the esterification of cholesterol using endogenous cholesterol of a rabbit intestinal microsomal fraction and exogenous ^14 C-oleoyl-CoA as reactants.

[2] = Elevation of HDL by test drug relative to gemfibrozil (test procedure of U.S. Pat. No. 4,413,011); type: in vivo; details: ratio; 50 mg/kg test drug vs 50 mg/kg gemfibrozil; 1 = as effective as gemfibrozil
Method: Additionally, the elevation of HDL is reported in the table as a ratio of the elevation of HDL effected by a dose of 50 mg/kg of the test drug divided by the elevation of HDL effected by a 50 mg/kg dose of gemfibrozil which is used as a control in each experiment. [formula] Thus, a figure of 1 means that the test drug was as effective as gemfibrozil in elevating HDL. […] The test procedure is described in U.S. Pat. No. 4,413,011, which is herein incorporated by reference.

[3] = patients with elevated cholesterol levels; 5-year trial; cited from earlier work

IC50 [1] [µM] | SMILES | Δ HDL Test Compound / Δ HDL Gemfibrozil [2] | reduction of the rate of heart attack and sudden cardiac death [3] [%]
74 | CCCCCCCCCCCCCCCCS(=O)(=O)Nc1cc(C)c(OCCCC(C)(C)C(=O)OC)cc1C [Example 5, 5-[4-[(Hexadecylsulfonyl)amino]-2,5-dimethylphenoxy]-2,2-dimethylpentanoic acid, methyl ester] | 0.8 | –
69 | COC(=O)C(C)(C)CCCOc1cc(C)c(NS(C)(=O)=O)cc1C [Example 12] | 1.5 | –
28 | COC(=O)C(C)(C)CCCOc1cc(C)c(NC(=S)Nc2ccccc2)cc1C [Example 16, 5-[2,5-Dimethyl-4-[[(phenylamino)-thioxomethyl]amino]phenoxy]-2,2-dimethylpentanoic acid, methyl ester] | 0.9 | –
– | Cc1ccc(C)c(OCCCC(C)(C)C(=O)O)c1 [gemfibrozil] | – | 34
